“And” between values parts separate entries of the source, which are not always exact repeats. Identical values can stand only once. Inconclusive results and toxic doses are left out. No stated cut-off is given here; in the data, active means T/C of 150% or more; inactive means T/C below 125%.
Tested on: L1210 leukemia ip in BDF1 mice, survival T/C
Experiment: NCI In Vivo Anticancer Drug Screen. Data for tumor model L1210 Leukemia (intraperitoneal) in B6D2F1 (BDF1) mice
Details: endpoint: mean survival time, higher = longer survival
Procedure, shortened: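 Transplanted-tumor mice were given test agent; controls received vehicle only. Survival readings from the two groups were divided (treated over control).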

[1] = dose: 100.0 mg/kg/injection, schedule: Q01DX001 (ip), vehicle: Klucel (hydroxypropylcellulose) (HPC)
[2] = dose: 100.0 mg/kg/injection, schedule: Q04DX003 (ip), vehicle: Klucel (hydroxypropylcellulose) (HPC)
[3] = dose: 200.0 mg/kg/injection, schedule: Q01DX001 (ip), vehicle: Klucel (hydroxypropylcellulose) (HPC)
[4] = dose: 200.0 mg/kg/injection, schedule: Q04DX003 (ip), vehicle: Klucel (hydroxypropylcellulose) (HPC)
[5] = dose: 400.0 mg/kg/injection, schedule: Q01DX001 (ip), vehicle: Klucel (hydroxypropylcellulose) (HPC)
[6] = dose: 100.0 mg/kg/injection, schedule: Q04DX003 (ip), vehicle: saline with Tween-80
[7] = dose: 400.0 mg/kg/injection, schedule: Q04DX003 (ip), vehicle: Klucel (hydroxypropylcellulose) (HPC)
[8] = dose: 100.0 mg/kg/injection, schedule: Q04DX002 (ip), vehicle: Klucel (hydroxypropylcellulose) (HPC)
[9] = dose: 100.0 mg/kg/injection, schedule: Q01DX001 (ip), vehicle: saline
[10] = dose: 200.0 mg/kg/injection, schedule: Q01DX001 (ip), vehicle: saline
[11] = dose: 25.0 mg/kg/injection, schedule: Q04DX002 (ip), vehicle: saline with Tween-80

Measured: T/C

N=C(N)C(N)=NCC(Br)CBr (stereo not drawn)
inactive: dose: 100.0 mg/kg/injection, schedule: Q04DX002 (ip), vehicle: saline 93 % of control | dose: 200.0 mg/kg/injection, schedule: Q04DX002 (ip), vehicle: saline 108 % of control

CN(C)N=Nc1ccc(C(=O)N/N=C/c2ccccc2)cc1
inactive: dose: 75.0 mg/kg/injection, schedule: Q04DX003 (ip), vehicle: Klucel (hydroxypropylcellulose) (HPC) 99 % of control | dose: 150.0 mg/kg/injection, schedule: Q04DX003 (ip), vehicle: Klucel (hydroxypropylcellulose) (HPC) 97 % of control | dose: 300.0 mg/kg/injection, schedule: Q04DX003 (ip), vehicle: Klucel (hydroxypropylcellulose) (HPC) 100 % of control

CC1=CC(=O)C2COc3c2c1cc1c(C)cc(=O)n(C)c31 (stereo not drawn)
inactive: dose: 50.0 mg/kg/injection, schedule: Q04DX003 (ip), vehicle: Klucel (hydroxypropylcellulose) (HPC) 97 % of control | [1] 95 % of control | [2] 113 % of control | [3] 95 % of control | [4] 97 % of control | [5] 97 % of control

CC1(C)C[N+](C)(Cc2ccccc2)C1
inactive: [6] 101 % of control

CC(=O)CCC(C(=O)c1ccccc1)c1ccccc1 (stereo not drawn)
inactive: dose: 222.0 mg/kg/injection, schedule: Q01DX Z (ip), vehicle: methylcellulose (MC) 101 % of control

CC(=O)OCC12CCC(O1)C1C(=O)OC(=O)C12 (stereo not drawn)
inactive: dose: 100.0 mg/kg/injection, schedule: Q01DX009 (ip), vehicle: Klucel (hydroxypropylcellulose) (HPC) 91 % of control | [2] 97 % of control | dose: 200.0 mg/kg/injection, schedule: Q01DX009 (ip), vehicle: Klucel (hydroxypropylcellulose) (HPC) 88 % of control | [4] 98 % of control | dose: 400.0 mg/kg/injection, schedule: Q01DX009 (ip), vehicle: Klucel (hydroxypropylcellulose) (HPC) 93 % of control | [7] 90 % of control

C=CCNC(=S)Nc1ccccc1C=O
inactive: dose: 25.0 mg/kg/injection, schedule: Q04DX002 (ip), vehicle: Klucel (hydroxypropylcellulose) (HPC) 100 % of control | dose: 50.0 mg/kg/injection, schedule: Q04DX002 (ip), vehicle: Klucel (hydroxypropylcellulose) (HPC) 106 % of control | [8] 110 % of control and 90 % of control

CCCCn1cnc2c(=O)n(C)c(=O)n(C)c21
inactive: [9] 96 % of control | [10] 94 % of control

O=C1C=C(c2ccccc2)C(O)(c2ccccc2)/C1=C/c1ccccc1 (stereo not drawn)
inactive: dose: 6.25 mg/kg/injection, schedule: Q04DX002 (ip), vehicle: saline with Tween-80 100 % of control | dose: 12.5 mg/kg/injection, schedule: Q04DX002 (ip), vehicle: saline with Tween-80 92 % of control | [11] 92 % of control

CC(=O)OC1CCC2(C)C3=CCC4(C)C(C(C)/C=C\C(C)C(C)C)CCC4C34C=CC2(C1)C1C(=O)OC(=O)C14 (stereo not drawn)
inactive: [11] 98 % of control | dose: 50.0 mg/kg/injection, schedule: Q04DX002 (ip), vehicle: saline with Tween-80 90 % of control | dose: 100.0 mg/kg/injection, schedule: Q04DX002 (ip), vehicle: saline with Tween-80 94 % of control

C=CCCCCCCCCCC(CCCCCC)C(=O)O (stereo not drawn)
inactive: dose: 100.0 mg/kg/injection, schedule: Q01DX001 (ip), vehicle: saline with Tween-80 101 % of control | dose: 200.0 mg/kg/injection, schedule: Q01DX001 (ip), vehicle: saline with Tween-80 111 % of control | dose: 400.0 mg/kg/injection, schedule: Q01DX001 (ip), vehicle: saline with Tween-80 92 % of control

COC(=O)C1OC(n2cnc3c(Cl)ncnc32)C(OC(C)=O)C(OC(C)=O)C1OC(C)=O (stereo not drawn)
inactive: dose: 50.0 mg/kg/injection, schedule: Q01DX001 (ip), vehicle: carboxymethylcellulose (CMC) 100 % of control | dose: 100.0 mg/kg/injection, schedule: Q01DX001 (ip), vehicle: carboxymethylcellulose (CMC) 108 % of control | dose: 200.0 mg/kg/injection, schedule: Q01DX001 (ip), vehicle: carboxymethylcellulose (CMC) 103 % of control | dose: 400.0 mg/kg/injection, schedule: Q01DX001 (ip), vehicle: carboxymethylcellulose (CMC) 97 % of control

CC(=O)OCC1OC(OC(C)=O)C(NC(=O)N(C)C(C)=O)C(OC(C)=O)C1OC(C)=O (stereo not drawn)
inactive: [2] 100 % of control | [4] 100 % of control | [7] 97 % of control

O=S(=O)(O)C1(C(Cl)Cl)CCCCC1 (tested in a mixture with another compound)
inactive: dose: 9.0 mg/kg/injection, schedule: Q01DX001 (ip), vehicle: other 100 % of control | dose: 18.0 mg/kg/injection, schedule: Q01DX001 (ip), vehicle: other 105 % of control | dose: 37.0 mg/kg/injection, schedule: Q01DX001 (ip), vehicle: other 105 % of control | dose: 75.0 mg/kg/injection, schedule: Q01DX001 (ip), vehicle: other 104 % of control | dose: 150.0 mg/kg/injection, schedule: Q01DX001 (ip), vehicle: other 111 % of control | dose: 300.0 mg/kg/injection, schedule: Q01DX001 (ip), vehicle: other 115 % of control

Nc1ccc(S(=O)(=O)O)c2cccc(O)c12
inactive: dose: 100.0 mg/kg/injection, schedule: Q04DX002 (ip), vehicle: carboxymethylcellulose (CMC) 103 % of control | [2] 101 % of control | dose: 200.0 mg/kg/injection, schedule: Q04DX002 (ip), vehicle: carboxymethylcellulose (CMC) 107 % of control | [4] 91 % of control | [7] 101 % of control

Oc1cccc(Nc2ccccc2)c1
inactive: [8] 106 % of control | dose: 200.0 mg/kg/injection, schedule: Q04DX002 (ip), vehicle: Klucel (hydroxypropylcellulose) (HPC) 95 % of control | dose: 400.0 mg/kg/injection, schedule: Q04DX002 (ip), vehicle: Klucel (hydroxypropylcellulose) (HPC) 95 % of control

CCC(C(=O)c1cccs1)C(O)(C(F)(F)F)C(F)(F)F (stereo not drawn)
inactive: [1] 102 % of control | [3] 97 % of control | [5] 94 % of control

O=S(=O)(OCC1C2CCC1CC2)c1ccccc1 (stereo not drawn)
inactive: dose: 100.0 mg/kg/injection, schedule: Q01DX009 (ip), vehicle: other 92 % of control | dose: 100.0 mg/kg/injection, schedule: Q04DX003 (ip), vehicle: other 104 % of control | dose: 200.0 mg/kg/injection, schedule: Q01DX009 (ip), vehicle: other 94 % of control | dose: 200.0 mg/kg/injection, schedule: Q04DX003 (ip), vehicle: other 94 % of control | dose: 400.0 mg/kg/injection, schedule: Q01DX009 (ip), vehicle: other 101 % of control | dose: 400.0 mg/kg/injection, schedule: Q04DX003 (ip), vehicle: other 89 % of control

Cc1nnc(C(N)=O)c(=O)[nH]1
inactive: [1] 109 % of control | [3] 120 % of control | [5] 97 % of control

O=C(O)c1cnc(Cl)c(Br)c1
inactive: [6] 94 % of control | dose: 200.0 mg/kg/injection, schedule: Q04DX003 (ip), vehicle: saline with Tween-80 94 % of control | dose: 400.0 mg/kg/injection, schedule: Q04DX003 (ip), vehicle: saline with Tween-80 96 % of control

Cc1nnn(N/N=C(\C(=O)Oc2ccccc2)c2ccccc2)c1C
inactive: [2] 100 % of control | [4] 103 % of control | [7] 96 % of control

Cc1ccc(S(=O)(=O)OCCN(CCOS(=O)(=O)c2ccc(C)cc2)c2cccc([N+](=O)[O-])c2)cc1
inactive: dose: 50.0 mg/kg/injection, schedule: Q01DX001 (ip), vehicle: saline 97 % of control | [9] 100 % of control | [10] 97 % of control | dose: 400.0 mg/kg/injection, schedule: Q01DX001 (ip), vehicle: saline 88 % of control

Clc1ccc(/C=C2\c3ccccc3-c3nc4ccccc4nc32)cc1
inactive: dose: 75.0 mg/kg/injection, schedule: Q04DX003 (ip), vehicle: saline 91 % of control | dose: 150.0 mg/kg/injection, schedule: Q04DX003 (ip), vehicle: saline 88 % of control

Reference: PubChem BioAssay AID248 (DTP/NCI, 2004)
